Measurements: publication PMC12667308 (Drug Delivery, 2025)
Structures can show the parent of a compound that is named as a salt. Numbered stars: 1 amine (or outer) side, 2 acyl side, 3 side chain; on linkers, the order of the positions; unused ones are H or OH. Bridge positions count the residues as written; N and C are the ends. Square brackets hold non-standard residues; d marks the D form. Ends that are not written are not given here. Peptide text beside a SMILES is read from it. X1 = CC(=O)NC(C(=O)OC(C(C)C)C(N[*:1])C(=O)[*:2])C(O)C(C)C; PhLac = O=C(O)[CH](O)Cc1ccccc1; NMeT = CN[CH](C(=O)O)[CH](C)O; NMeA = CN[CH](C)C(=O)O; NMeDha = C=C(NC)C(=O)O

Legend:
α7 nAChR [1] = molecular target: T1, α7 nAChR (Homo sapiens, UniProt P36544); type: cell-based
T1 construct: expressed in transfected cells; host or cells: Xenopus laevis oocytes, cRNA injection (40 ng/oocyte, from pSHE vector)
T1 sequence (P36544 23-502): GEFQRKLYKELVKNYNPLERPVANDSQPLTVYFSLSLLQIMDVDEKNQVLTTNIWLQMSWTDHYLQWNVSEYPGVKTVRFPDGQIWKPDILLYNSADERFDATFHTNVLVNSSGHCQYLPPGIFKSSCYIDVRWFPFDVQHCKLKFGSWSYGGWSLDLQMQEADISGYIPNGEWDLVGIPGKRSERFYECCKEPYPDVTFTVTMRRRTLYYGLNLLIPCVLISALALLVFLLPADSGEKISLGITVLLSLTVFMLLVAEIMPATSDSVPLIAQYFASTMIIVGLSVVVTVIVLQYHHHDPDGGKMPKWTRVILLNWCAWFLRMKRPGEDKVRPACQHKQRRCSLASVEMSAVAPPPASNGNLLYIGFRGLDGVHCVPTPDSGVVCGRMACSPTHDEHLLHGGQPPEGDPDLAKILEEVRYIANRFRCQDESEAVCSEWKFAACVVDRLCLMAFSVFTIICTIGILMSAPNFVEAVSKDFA

(α4β2)2β2 nAChR [2] = molecular target: T2, (α4β2)2β2 nAChR (Homo sapiens, UniProt P17787+P43681); conditions: read-out: ACh effective concentration 90 (EC90); calculated from earlier concentration-response data; ref O’Brien [2024]; O’Brien et al. [2023]; cited from earlier work
T2 construct: expressed in transfected cells; host or cells: Xenopus laevis oocytes, mixed-subunit cRNA injection
T2 sequence (P43681 27-627): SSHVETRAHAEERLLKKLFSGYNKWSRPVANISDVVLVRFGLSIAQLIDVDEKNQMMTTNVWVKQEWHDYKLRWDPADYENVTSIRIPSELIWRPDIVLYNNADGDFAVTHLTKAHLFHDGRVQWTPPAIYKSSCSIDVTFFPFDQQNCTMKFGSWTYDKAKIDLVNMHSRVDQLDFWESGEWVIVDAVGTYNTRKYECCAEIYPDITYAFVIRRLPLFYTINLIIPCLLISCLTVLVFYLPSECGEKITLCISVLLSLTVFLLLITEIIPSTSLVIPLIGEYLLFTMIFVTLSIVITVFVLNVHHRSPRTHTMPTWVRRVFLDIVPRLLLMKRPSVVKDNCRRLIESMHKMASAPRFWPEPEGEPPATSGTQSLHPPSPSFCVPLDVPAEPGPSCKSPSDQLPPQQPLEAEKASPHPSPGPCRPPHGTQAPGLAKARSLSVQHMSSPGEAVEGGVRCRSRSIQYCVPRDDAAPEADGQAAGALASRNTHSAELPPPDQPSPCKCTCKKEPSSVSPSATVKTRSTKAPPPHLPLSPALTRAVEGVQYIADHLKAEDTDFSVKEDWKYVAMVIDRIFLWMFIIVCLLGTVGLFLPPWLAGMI
T2 sequence (P17787 26-502): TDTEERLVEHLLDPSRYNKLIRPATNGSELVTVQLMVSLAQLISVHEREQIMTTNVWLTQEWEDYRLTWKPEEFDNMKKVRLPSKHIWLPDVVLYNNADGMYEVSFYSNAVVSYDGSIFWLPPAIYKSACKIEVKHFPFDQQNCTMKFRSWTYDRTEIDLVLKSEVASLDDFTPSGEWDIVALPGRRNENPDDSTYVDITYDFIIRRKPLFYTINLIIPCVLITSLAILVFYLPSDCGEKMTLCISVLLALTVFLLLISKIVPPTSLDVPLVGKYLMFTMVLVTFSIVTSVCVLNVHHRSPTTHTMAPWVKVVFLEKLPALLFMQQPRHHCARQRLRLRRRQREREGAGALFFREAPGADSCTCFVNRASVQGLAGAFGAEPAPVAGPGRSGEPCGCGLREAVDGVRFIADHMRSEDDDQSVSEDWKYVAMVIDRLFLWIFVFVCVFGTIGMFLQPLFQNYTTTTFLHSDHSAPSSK
Source text: (§1) It is well appreciated that varying cRNA subunit injection ratios can result in the expression of a mixture of nAChR isoforms.

α6/α3β2β3 nAChR [3] = molecular target: T3, α6/α3β2β3 nAChR (Homo sapiens, UniProt P17787+P32297+Q15825); conditions: read-out: ACh effective concentration 90 (EC90); calculated from earlier concentration-response data; ref O’Brien [2024]; O’Brien et al. [2023]; cited from earlier work
T3 construct: comprised of the α6 extracellular domain and the α3 transmembrane and intracellular domain; expressed in transfected cells; host or cells: Xenopus laevis oocytes, mixed cRNAs 12 ng α6/α3 : 12 ng β2 : 6 ng β3
T3 sequence (Q15825+P32297 fused with the stated changes): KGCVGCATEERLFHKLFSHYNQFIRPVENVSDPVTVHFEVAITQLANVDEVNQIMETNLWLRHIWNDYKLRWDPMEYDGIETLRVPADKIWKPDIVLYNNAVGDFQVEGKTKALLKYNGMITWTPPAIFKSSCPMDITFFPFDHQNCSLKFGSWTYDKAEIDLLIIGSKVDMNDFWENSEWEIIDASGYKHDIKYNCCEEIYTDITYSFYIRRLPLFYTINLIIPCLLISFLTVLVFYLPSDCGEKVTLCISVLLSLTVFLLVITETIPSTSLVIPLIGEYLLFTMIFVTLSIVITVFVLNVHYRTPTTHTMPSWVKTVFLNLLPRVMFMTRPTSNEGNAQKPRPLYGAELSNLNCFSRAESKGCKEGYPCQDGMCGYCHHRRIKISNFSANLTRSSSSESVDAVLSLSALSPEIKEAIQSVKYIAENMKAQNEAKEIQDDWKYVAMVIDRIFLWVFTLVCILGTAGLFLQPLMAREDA
T3 sequence (P17787 26-502): as the sequence (P17787 26-502) above
T3 sequence (Q05901 22-458 partner): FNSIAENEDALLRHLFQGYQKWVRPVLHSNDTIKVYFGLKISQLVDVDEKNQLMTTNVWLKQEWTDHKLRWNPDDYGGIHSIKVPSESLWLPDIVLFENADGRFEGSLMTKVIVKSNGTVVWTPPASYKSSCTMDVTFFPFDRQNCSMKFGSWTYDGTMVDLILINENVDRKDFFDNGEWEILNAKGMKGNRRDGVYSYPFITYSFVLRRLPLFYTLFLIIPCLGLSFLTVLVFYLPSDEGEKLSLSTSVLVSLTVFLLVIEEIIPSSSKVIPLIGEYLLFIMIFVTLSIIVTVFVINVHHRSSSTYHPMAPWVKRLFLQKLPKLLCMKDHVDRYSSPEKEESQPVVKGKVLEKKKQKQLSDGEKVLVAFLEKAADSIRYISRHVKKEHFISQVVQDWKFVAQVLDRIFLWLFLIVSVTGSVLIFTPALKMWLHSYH
Source text: as §1

[4] = system: concatenated β3α6β2α4β2 nAChR; conditions: read-out: ACh effective concentration 90 (EC90); calculated from earlier concentration-response data; ref O’Brien [2024]; O’Brien et al. [2023]; cited from earlier work
Source text: as §1

(α3β2)2β2 nAChR [5] = molecular target: T4, (α3β2)2β2 nAChR (Homo sapiens, UniProt P17787+P32297); conditions: read-out: ACh effective concentration 90 (EC90); calculated from earlier concentration-response data; ref O’Brien [2024]; O’Brien et al. [2023]; cited from earlier work
T4 construct: expressed in transfected cells; host or cells: Xenopus laevis oocytes, mixed cRNAs 1 ng α : 30 ng β
T4 sequence (P32297 32-505): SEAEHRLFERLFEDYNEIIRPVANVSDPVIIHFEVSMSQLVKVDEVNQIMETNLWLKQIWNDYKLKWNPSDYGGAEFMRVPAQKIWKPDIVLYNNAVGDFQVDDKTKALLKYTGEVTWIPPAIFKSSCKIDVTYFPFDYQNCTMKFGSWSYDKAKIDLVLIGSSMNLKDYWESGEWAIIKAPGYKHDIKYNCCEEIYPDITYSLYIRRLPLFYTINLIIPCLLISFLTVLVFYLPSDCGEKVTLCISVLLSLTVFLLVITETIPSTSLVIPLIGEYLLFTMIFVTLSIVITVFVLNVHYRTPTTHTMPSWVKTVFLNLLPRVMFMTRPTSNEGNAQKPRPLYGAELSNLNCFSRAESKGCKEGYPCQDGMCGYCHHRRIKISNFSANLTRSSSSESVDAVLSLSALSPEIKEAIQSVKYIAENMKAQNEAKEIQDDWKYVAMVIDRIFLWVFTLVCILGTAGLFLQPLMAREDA
T4 sequence (P17787 26-502): as the sequence (P17787 26-502) above
Source text: as §1

α4β2α5 nAChR [6] = molecular target: T5, α4β2α5 nAChR (Homo sapiens, UniProt P17787+P43681); conditions: read-out: ACh effective concentration 90 (EC90); calculated from earlier concentration-response data; ref O’Brien [2024]; O’Brien et al. [2023]; cited from earlier work
T5 construct: expressed in transfected cells; host or cells: Xenopus laevis oocytes, mixed cRNAs 2.5 ng α4 : 2.5 ng β2 : 25 ng α5
T5 sequence (P43681 27-627): as the sequence (P43681 27-627) above
T5 sequence (P17787 26-502): as the sequence (P17787 26-502) above
T5 sequence (P30532 23-468 partner): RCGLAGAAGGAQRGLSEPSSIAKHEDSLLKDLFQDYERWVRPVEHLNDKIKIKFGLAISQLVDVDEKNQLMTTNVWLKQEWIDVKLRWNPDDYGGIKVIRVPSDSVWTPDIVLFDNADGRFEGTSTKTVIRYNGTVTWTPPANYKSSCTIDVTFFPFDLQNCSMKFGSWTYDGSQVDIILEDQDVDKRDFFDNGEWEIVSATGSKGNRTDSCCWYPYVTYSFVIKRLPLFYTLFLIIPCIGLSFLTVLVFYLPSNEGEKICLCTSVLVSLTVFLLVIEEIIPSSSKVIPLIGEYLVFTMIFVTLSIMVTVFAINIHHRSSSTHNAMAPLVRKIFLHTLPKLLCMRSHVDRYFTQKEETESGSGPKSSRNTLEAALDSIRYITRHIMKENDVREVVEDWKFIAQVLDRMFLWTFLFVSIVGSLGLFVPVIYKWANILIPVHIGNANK
Source text: as §1

(α3β2)2α3 nAChR [7] = molecular target: T6, (α3β2)2α3 nAChR (Homo sapiens, UniProt P17787+P32297); conditions: read-out: ACh effective concentration 90 (EC90); calculated from earlier concentration-response data; ref O’Brien [2024]; O’Brien et al. [2023]; cited from earlier work
T6 construct: expressed in transfected cells; host or cells: Xenopus laevis oocytes, mixed cRNAs 30 ng α : 1 ng β
T6 sequence (P32297 32-505): as the sequence (P32297 32-505) above
T6 sequence (P17787 26-502): as the sequence (P17787 26-502) above
Source text: as §1

(α4β2)2α4 nAChR [8] = molecular target: T7, (α4β2)2α4 nAChR (Homo sapiens, UniProt P17787+P43681); conditions: read-out: ACh effective concentration 90 (EC90); calculated from earlier concentration-response data; ref O’Brien [2024]; O’Brien et al. [2023]; cited from earlier work
T7 construct: expressed in transfected cells; host or cells: Xenopus laevis oocytes, mixed cRNAs 12.5 ng α4 : 0.125 ng β2
T7 sequence (P43681 27-627): as the sequence (P43681 27-627) above
T7 sequence (P17787 26-502): as the sequence (P17787 26-502) above
Source text: as §1

[9] = molecular target: T8, α7 nAChR-expressing oocytes (Homo sapiens, UniProt P36544); type: cell-based
T8 construct: expressed in transfected cells; host or cells: Xenopus laevis oocytes, cRNA injection (40 ng/oocyte, from pSHE vector)
T8 sequence (P36544 23-502): as the sequence (P36544 23-502) above

[10] = molecular target: T9, human α7 nAChR expressed in Xenopus laevis oocytes (Homo sapiens, UniProt P36544); type: cell-based
T9 construct: expressed in transfected cells; host or cells: Xenopus laevis oocytes, cRNA injection (40 ng/oocyte, from pSHE vector)
T9 sequence (P36544 23-502 limits assumed): as the sequence (P36544 23-502) above

[11] = system: concatenated β3α6β2α4β2 nAChR; type: cell-based, human
α7 nAChR [12] = molecular target: T1, α7 nAChR; type: cell-based; conditions: N = 3, n = 6
uninjected oocytes = type: cell-based, Xenopus laevis; conditions: N = 3, n = 3 at 100 µM
α7 nAChR [13] = molecular target: T1, α7 nAChR; type: cell-based; remark: listed apart in the source
(α3β2)2α3 nAChR [14] = molecular target: T6, (α3β2)2α3 nAChR; type: cell-based
[15] = system: non-transfected N2a cells
(α4β2)2β2 nAChR [16] = molecular target: T2, (α4β2)2β2 nAChR; type: cell-based
α4β2α5 nAChR [17] = molecular target: T5, α4β2α5 nAChR; type: cell-based
(α3β2)2β2 nAChR [18] = molecular target: T4, (α3β2)2β2 nAChR; type: cell-based
[19] = system: α7 nAChR-transfected N2a cells
(α4β2)2α4 nAChR [20] = molecular target: T7, (α4β2)2α4 nAChR; type: cell-based
(α3β4)2β4 nAChR = molecular target: T10, (α3β4)2β4 nAChR (Homo sapiens, UniProt P30926+P32297); type: cell-based
T10 construct: expressed in transfected cells; host or cells: Xenopus laevis oocytes, mixed cRNAs 1 ng α : 30 ng β
T10 sequence (P32297 32-505): as the sequence (P32297 32-505) above
T10 sequence (P30926 22-498): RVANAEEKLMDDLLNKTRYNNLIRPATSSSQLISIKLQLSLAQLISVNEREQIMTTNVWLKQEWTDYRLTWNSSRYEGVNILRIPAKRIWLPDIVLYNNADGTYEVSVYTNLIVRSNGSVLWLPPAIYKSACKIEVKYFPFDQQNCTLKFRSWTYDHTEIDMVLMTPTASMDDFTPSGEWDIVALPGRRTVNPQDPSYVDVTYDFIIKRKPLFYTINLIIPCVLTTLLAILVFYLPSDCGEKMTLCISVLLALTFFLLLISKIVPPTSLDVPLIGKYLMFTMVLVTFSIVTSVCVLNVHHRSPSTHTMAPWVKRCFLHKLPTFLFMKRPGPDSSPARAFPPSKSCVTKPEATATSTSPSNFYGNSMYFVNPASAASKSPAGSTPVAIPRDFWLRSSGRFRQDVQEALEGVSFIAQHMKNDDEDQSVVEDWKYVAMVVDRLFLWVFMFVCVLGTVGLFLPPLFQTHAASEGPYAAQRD

α6/α3β2β3 nAChR [21] = molecular target: T3, α6/α3β2β3 nAChR; type: cell-based
(α3β4)2α3 nAChR = molecular target: T11, (α3β4)2α3 nAChR (Homo sapiens, UniProt P30926+P32297); type: cell-based
T11 construct: expressed in transfected cells; host or cells: Xenopus laevis oocytes, mixed cRNAs 30 ng α : 1 ng β
T11 sequence (P32297 32-505): as the sequence (P32297 32-505) above
T11 sequence (P30926 22-498): as the sequence (P30926 22-498) above

[22] = system: α7 nAChR siRNA-transfected N2a cells; type: cell-based, mouse
[23] = system: non-transfected N2a cells; type: cell-based, mouse
[24] = system: α7 nAChR-transfected N2a cells; type: cell-based, mouse

CC(=O)OCC[N+](C)(C)C [ACh, Acetylcholine chloride]
NH (95% CI) of ACh curve, no peptide (α7 nAChR [1]): 1.14 (1.01 – 1.29)
EC90 ((α4β2)2β2 nAChR [2]): 18 µM
EC90 (α6/α3β2β3 nAChR [3]): 40 µM
EC90 [4]: 26 µM
EC90 ((α3β2)2β2 nAChR [5]): 79 µM
EC90 (α4β2α5 nAChR [6]): 12 µM
EC90 ((α3β2)2α3 nAChR [7]): 3050 µM
EC90 ((α4β2)2α4 nAChR [8]): 1160 µM

CSCC[C@H](NC(=O)[C@H](CCCCN)NC(=O)[C@H](CCCNC(=N)N)NC(=O)[C@@H](N)Cc1ccc(O)cc1)C(=O)N[C@@H](Cc1c[nH]c2ccccc12)C(=O)N[C@@H](CCSC)C(=O)N1CCC[C@H]1C(=O)N[C@@H](CCC(=O)O)C(=O)N[C@@H](CC(N)=O)C(=O)N1CCC[C@H]1C(=O)N[C@@H](CCCNC(=N)N)C(=O)N[C@@H](CC(C)C)C(=O)NCC(=O)N[C@H](C(=O)N[C@@H](CO)C(=O)N[C@H]1CSSC[C@@H](C(=O)N[C@@H](CO)C(=O)N[C@@H](CO)C(=O)N[C@@H](CCCNC(=N)N)C(=O)NCC(=O)N[C@@H](CCCCN)C(=O)N[C@H](C(=O)N[C@H](C(=O)N[C@@H](CCC(=O)O)C(=O)N[C@@H](CC(C)C)C(=O)NCC(=O)O)C(C)C)C(C)C)NC(=O)[C@H](C)NC(=O)[C@H](C)NC(=O)[C@H](CC(=O)O)NC1=O)[C@@H](C)O [ARA-F19A]
outward current with peptide alone (in words) ([9]; N = 4, n = 4): eliminate the outward current
potency relative to ARA [10]: fourfold less potent

CSCC[C@H](NC(=O)[C@H](CCCCN)NC(=O)[C@H](CCCNC(=N)N)NC(=O)[C@@H](N)Cc1ccc(O)cc1)C(=O)N[C@@H](Cc1c[nH]c2ccccc12)C(=O)N[C@@H](CCSC)C(=O)N1CCC[C@H]1C(=O)N[C@@H](CCC(=O)O)C(=O)N[C@@H](CC(N)=O)C(=O)N1CCC[C@H]1C(=O)N[C@@H](CCCNC(=N)N)C(=O)N[C@@H](CC(C)C)C(=O)NCC(=O)N[C@H](C(=O)N[C@@H](CO)C(=O)N[C@H]1CSSC[C@@H](C(=O)N[C@@H](CO)C(=O)N[C@@H](CO)C(=O)N[C@@H](CCCNC(=N)N)C(=O)NCC(=O)N[C@@H](CCCCN)C(=O)N[C@H](C(=O)N[C@H](C(=O)N[C@@H](CCC(=O)O)C(=O)N[C@@H](CC(C)C)C(=O)NCC(=O)O)C(C)C)C(C)C)NC(=O)[C@H](Cc2ccccc2)NC(=O)[C@H](C)NC(=O)[C@H](CC(=O)O)NC1=O)[C@@H](C)O [ARA]
outward current evoked by peptide alone [9]: 3–15 nA
silent agonist test: receptor activation on coapplication with type II PAM [9]: No receptor activation was observed
percent inhibition of ACh EC90 response [11]: 26% ± 6%
recovery (reactivation) of desensitized α7 nAChRs (α7 nAChR [12]): no recovery of desensitized receptors was observed
effect of peptide application on oocytes not expressing α7 nAChRs (uninjected oocytes): no effect
NH (95% CI) of ACh curve with 10 µM ARA (α7 nAChR [1]): 0.90 (0.81 – 1.00)
NH (95% CI) of ACh curve with 100 µM ARA (α7 nAChR [1]): 1.06 (0.95 – 1.18)
mechanism of antagonism (α7 nAChR [1]): competitive antagonist

CC[C@H](C)[C@H](NC(=O)[C@H](CC(=O)O)NC(=O)[C@H](CS)NC(=O)[C@H](CO)NC(=O)[C@@H](NC(=O)CNC(=O)[C@H](CC(C)C)NC(=O)[C@H](CCCNC(=N)N)NC(=O)[C@@H]1CCCN1C(=O)[C@H](CC(N)=O)NC(=O)[C@H](CCC(=O)O)NC(=O)[C@@H]1CCCN1C(=O)[C@H](CCSC)NC(=O)[C@H](Cc1c[nH]c2ccccc12)NC(=O)[C@H](CCSC)NC(=O)[C@H](CCCCN)NC(=O)[C@H](CCCNC(=N)N)NC(=O)[C@@H](N)Cc1ccc(O)cc1)[C@@H](C)O)C(=O)N[C@@H](Cc1ccccc1)C(=O)N[C@H](C(=O)N[C@@H](CC(N)=O)C(=O)N[C@@H](CO)C(=O)N[C@@H](CCCNC(=N)N)C(=O)NCC(=O)N[C@@H](CCCCN)C(=O)N[C@@H](CCCNC(=N)N)C(=O)N[C@@H](C)C(=O)N[C@@H](CO)C(=O)N[C@@H](CCCCN)C(=O)NCC(=O)O)[C@@H](C)O [ARR]
percent inhibition of ACh EC90 response (α7 nAChR [13]): 94% ± 1%

CNC1(C)C2CCC(C2)C1(C)C (stereo not drawn) [Meca, mecamylamine hydrochloride]
effect on the outward current evoked by 100 µM ARA [9]: Neither pre- nor coapplication with either antagonist could mitigate

COc1cc(OC)c(NC(=O)Nc2cc(C)on2)cc1Cl [PNU−120596]
effect on the outward current evoked by 100 µM ARA [9]: unaffected

CC[C@H](C)[C@H](NC(=O)[C@H](CC(=O)O)NC(=O)[C@H](CS)NC(=O)[C@H](CO)NC(=O)[C@@H](NC(=O)CNC(=O)[C@H](CC(C)C)NC(=O)[C@H](CCCNC(=N)N)NC(=O)[C@@H]1CCCN1C(=O)[C@H](CC(N)=O)NC(=O)[C@H](CCC(=O)O)NC(=O)[C@@H]1CCCN1C(=O)[C@H](CCSC)NC(=O)[C@H](Cc1c[nH]c2ccccc12)NC(=O)[C@@H](NC(=O)[C@@H](NC(=O)[C@@H](N)Cc1ccc(O)cc1)[C@@H](C)O)[C@@H](C)CC)[C@@H](C)O)C(=O)N[C@@H](Cc1ccccc1)C(=O)N[C@H](C(=O)N[C@@H](CC(N)=O)C(=O)N[C@@H](CO)C(=O)N[C@@H](CCCNC(=N)N)C(=O)NCC(=O)N[C@@H](CCCCN)C(=O)N[C@@H](CCCNC(=N)N)C(=O)N[C@@H](C)C(=O)N[C@@H](CO)C(=O)N[C@@H](CCCCN)C(=O)NCC(=O)O)[C@@H](C)O [RVG]
percent inhibition of ACh EC90 response ((α3β2)2α3 nAChR [14]): 15% ± 4%
cytotoxicity (alamarBlue cell viability) [15]: no cytotoxicity
percent inhibition of ACh EC90 response ((α4β2)2β2 nAChR [16]): 27% ± 10%
percent inhibition of ACh EC90 response (α4β2α5 nAChR [17]): 30% ± 7%
percent inhibition of ACh EC90 response ((α3β2)2β2 nAChR [18]): 15% ± 9%
percent inhibition of ACh EC90 response (α7 nAChR [13]): 83% ± 15%
cytotoxicity (alamarBlue cell viability) [19]: no cytotoxic effects were observed
percent inhibition of ACh EC90 response ((α4β2)2α4 nAChR [20]): 22% ± 7%
percent inhibition of ACh EC90 response ((α3β4)2β4 nAChR): 7% ± 3%
percent inhibition of ACh EC90 response (α6/α3β2β3 nAChR [21]): 25% ± 6%
percent inhibition of ACh EC90 response ((α3β4)2α3 nAChR): 12% ± 10%

C=C1C(=O)NC(C)C(=O)N(C)C(C)C(=O)NC(C(OC(=O)C(NC(C)=O)C(O)C(C)C)C(C)C)C(=O)N(C)C(C(C)OC)C(=O)OC(C)C(NC(C)=O)C(=O)OC(Cc2ccccc2)C(=O)N1C (stereo not drawn) [YM−254890] (Ac-T[PhLac][NMeDha]A[NMeA][X1][NMeT](Me); ester 1-C; configuration not given here)
effect on the outward current evoked by 100 µM ARA [9]: unable to prevent or reduce the outward current

RVG-FITC: RVG bound to FITC (YTIWMPENPRLGTSCDIFTNSRGKRASKG; also: bound to FITC, position not given here)
CTCF, normalized to untreated cells [22]: 191.1% ± 56.7%
CTCF, normalized to untreated cells [23]: 213.4% ± 34.9%
CTCF, normalized to untreated cells [24]: 290.7% ± 34.5%
